Measurements reported in ChEMBL document CHEMBL1201862, “PubChem BioAssay data set” (2004).
Calls of active or inactive are those of the source.

Columns and labels:
[1] = molecular target: T1, Leucine aminopeptidase (Plasmodium falciparum 3D7, UniProt Q8IL11); experiment: P. falciparum M17LAP inhibitors, primary screen, biochemical, fluorogenic H-Leu-NHMec substrate, 1536-well (AID 1619); format: functional
T1 sequence (Q8IL11 whole entry): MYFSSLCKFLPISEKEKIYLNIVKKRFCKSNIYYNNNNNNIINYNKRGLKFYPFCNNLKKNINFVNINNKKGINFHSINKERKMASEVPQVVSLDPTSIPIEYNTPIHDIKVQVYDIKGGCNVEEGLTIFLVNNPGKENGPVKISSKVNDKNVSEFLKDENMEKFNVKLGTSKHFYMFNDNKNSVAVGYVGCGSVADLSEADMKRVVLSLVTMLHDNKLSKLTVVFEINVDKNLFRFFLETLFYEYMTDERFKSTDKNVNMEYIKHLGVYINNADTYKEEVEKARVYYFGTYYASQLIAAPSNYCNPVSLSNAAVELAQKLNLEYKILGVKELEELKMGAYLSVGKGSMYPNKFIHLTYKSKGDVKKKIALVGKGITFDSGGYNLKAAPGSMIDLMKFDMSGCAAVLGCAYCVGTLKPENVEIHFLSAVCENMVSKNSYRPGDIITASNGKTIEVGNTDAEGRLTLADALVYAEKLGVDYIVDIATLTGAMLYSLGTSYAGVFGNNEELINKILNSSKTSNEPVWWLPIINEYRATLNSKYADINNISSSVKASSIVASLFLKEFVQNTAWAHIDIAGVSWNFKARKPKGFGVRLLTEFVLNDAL

[2] = HEp-2 cell cytotoxicity, dose response, cytotoxicity control for RSV inhibitor project, HTS (AID 2410); format: functional; settings: human respiratory syncytial virus
[3] = molecular target: Peroxisome proliferator-activated receptor gamma/Nuclear receptor coactivator 1 (Homo sapiens, UniProt P37231); experiment: (§1) TR-FRET dose response biochemical High Throughput Screening assay for agonists of the steroid receptor coactivator 1 (SRC-1) recruitment by the peroxisome proliferator-activated receptor gamma (PPAR gamma): non-selective agonists. [Related pubchem assays (depositor defined):AID1300, AID1808, AID504735, AID631]; format: protein assay
[4] = molecular target: Peroxisome proliferator-activated receptor gamma/Nuclear receptor coactivator 3 (Homo sapiens, UniProt P37231); experiment: as §1, with “3 (SRC-3)” for “1 (SRC-1)”, “assays: 1301 (Confirmation screen.), 1048 (Primary screen.)]” for “assays (depositor defined):AID1300, AID1808, AID504735, AID631]”; format: functional
[5] = molecular target: Peroxisome proliferator-activated receptor gamma/Nuclear receptor coactivator 2 (Homo sapiens, UniProt P37231); experiment: TR-FRET dose response biochemical High Throughput Screening assay for agonists of the steroid receptor coactivator 2 (SRC-2) recruitment by the peroxisome proliferator-activated receptor gamma (PPAR gamma): non-selective agonists. [Related pubchem assays: 1297, 1032 ]; format: functional
[6] = molecular target: Glucose-6-phosphate 1-dehydrogenase (Homo sapiens, UniProt P11413); experiment: human G6PD enzyme inhibitors, dose response, selectivity assay for P. falciparum G6PD inhibitor project, biochemical, fluorescence (AID 504792); format: functional
[7] = A549 cell cytotoxicity, dose response, cytotoxicity control, plate reader, cherry-pick, antagonist series (AID 743412); format: functional, cell-based
[8] = LGR2 antagonists, dose response, cell-based, HEK293, CRE-luciferase reporter, cherry pick, set 2 (AID 743343); format: functional;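 also: transfected cells were stimulated with diluted bursicon conditioned medium after compound addition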
[9] = MC4R antagonists, dose response, counter-screen for LGR2 antagonist project, cell-based, plate reader, cherry pick (AID 743444); format: functional;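 also: transfected HEK 293 cells stimulated with alpha-MSH peptide; potency of inhibitors of the alpha-MSH evoked signal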
[10] = growth suppression of PTEN-null colon cells, dose response, cell-based, HCT116 PTEN knockout (AID 1047); format: functional;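 also: HCT116 colon tumor cells with PTEN knocked out; cells exposed to compound for 60 hours before readout; potency for loss of cell viability measured by luminescence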
[11] = growth suppression of beta-catenin-knockout colon cells, dose response, cell-based, HCT116, human colon tumor (AID 1045); format: functional;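 also: HCT116 colon tumor cells with beta catenin knocked out; cells exposed to compound for 60 hours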
[12] = THP-1 cell cytotoxicity, dose response, cytotoxicity control for non-replicating M. tuberculosis project (AID 489025); format: functional
[13] = cells; format: functional
[14] = molecular target: T2, Replicative DNA helicase DnaB (Mycobacterium tuberculosis, UniProt P9WMR3); experiment: DnaB intein splicing inhibitors, dose response, biochemical, cell-free fluorescence (AID 449749); format: functional
T2 sequence (P9WMR3 whole entry): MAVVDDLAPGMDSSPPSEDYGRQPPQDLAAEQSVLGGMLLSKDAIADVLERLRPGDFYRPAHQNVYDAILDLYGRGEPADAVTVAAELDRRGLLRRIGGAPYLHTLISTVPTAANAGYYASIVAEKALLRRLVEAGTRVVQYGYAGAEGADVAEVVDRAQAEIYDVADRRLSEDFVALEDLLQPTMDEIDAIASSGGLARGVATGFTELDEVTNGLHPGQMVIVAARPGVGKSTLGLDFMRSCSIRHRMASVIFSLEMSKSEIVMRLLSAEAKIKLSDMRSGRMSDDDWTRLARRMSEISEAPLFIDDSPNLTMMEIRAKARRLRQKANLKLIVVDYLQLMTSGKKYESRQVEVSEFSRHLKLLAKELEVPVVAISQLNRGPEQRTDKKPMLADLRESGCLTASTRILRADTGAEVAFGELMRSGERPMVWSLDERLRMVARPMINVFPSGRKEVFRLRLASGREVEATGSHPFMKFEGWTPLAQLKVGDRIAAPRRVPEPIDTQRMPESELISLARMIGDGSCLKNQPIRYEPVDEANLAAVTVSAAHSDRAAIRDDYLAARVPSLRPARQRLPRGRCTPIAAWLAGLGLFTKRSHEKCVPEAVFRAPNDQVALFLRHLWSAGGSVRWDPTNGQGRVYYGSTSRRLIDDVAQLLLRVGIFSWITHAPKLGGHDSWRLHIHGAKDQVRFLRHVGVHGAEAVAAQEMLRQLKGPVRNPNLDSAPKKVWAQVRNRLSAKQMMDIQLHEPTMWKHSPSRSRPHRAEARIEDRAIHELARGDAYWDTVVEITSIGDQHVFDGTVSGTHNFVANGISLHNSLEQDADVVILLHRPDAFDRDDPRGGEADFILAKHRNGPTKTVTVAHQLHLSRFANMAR

[15] = molecular target: T3, Protein RecA (Mycobacterium tuberculosis, UniProt P9WHJ3); experiment: Fluorescence Cell-Free Homogeneous Dose Retest to Identify Inhibitors of RecA-Intein Splicing Activity. [Related pubchem assays (depositor defined):AID2097, AID2223, AID489010, AID492950]; format: functional
T3 sequence (P9WHJ3 whole entry): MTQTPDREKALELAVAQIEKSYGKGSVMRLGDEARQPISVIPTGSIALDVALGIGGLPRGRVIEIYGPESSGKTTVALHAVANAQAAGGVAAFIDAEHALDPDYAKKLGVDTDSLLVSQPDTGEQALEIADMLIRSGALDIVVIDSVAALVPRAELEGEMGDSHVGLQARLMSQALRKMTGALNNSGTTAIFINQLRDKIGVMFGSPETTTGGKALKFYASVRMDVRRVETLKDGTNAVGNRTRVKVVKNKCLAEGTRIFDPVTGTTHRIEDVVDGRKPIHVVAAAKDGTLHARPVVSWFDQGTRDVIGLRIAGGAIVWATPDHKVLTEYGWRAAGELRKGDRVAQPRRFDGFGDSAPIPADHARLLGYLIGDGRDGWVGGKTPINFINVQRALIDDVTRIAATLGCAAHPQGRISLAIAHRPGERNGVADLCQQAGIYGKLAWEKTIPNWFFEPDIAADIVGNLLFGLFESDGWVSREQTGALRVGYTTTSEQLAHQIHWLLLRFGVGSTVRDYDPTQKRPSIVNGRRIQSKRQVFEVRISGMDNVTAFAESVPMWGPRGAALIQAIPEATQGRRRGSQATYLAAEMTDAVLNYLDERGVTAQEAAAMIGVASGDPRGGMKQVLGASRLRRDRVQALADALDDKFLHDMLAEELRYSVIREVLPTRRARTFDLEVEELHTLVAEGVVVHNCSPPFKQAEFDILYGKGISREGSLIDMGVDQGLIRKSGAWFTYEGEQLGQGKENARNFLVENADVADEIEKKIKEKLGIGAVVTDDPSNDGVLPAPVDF

[16] = test system: BJ; experiment: cytotoxicity toward BJ-TERT fibroblasts, dose response, cell-based, RAS-independent, luminescence (AID 1933); format: functional; settings: Homo sapiens
[17] = test system: BJ; experiment: cells; format: functional, cell-based; settings: Homo sapiens
[18] = test system: BJ; experiment: cytotoxicity toward BJ-TERT-LT-ST fibroblasts, dose response, cell-based, RAS-independent, luminescence (AID 1935); format: functional; settings: Homo sapiens;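 also: BJ fibroblasts immortalized with TERT plus LT and ST oncogenes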
[19] = cytotoxicity toward DRD oncogenic fibroblasts, dose response, cell-based, non-viral oncogenic, luminescence (AID 1934); format: functional; settings: Homo sapiens
[20] = Luminescence Cell-Based Dose Retest to Confirm Inhibitors of Cancer Stem Cells. [Related pubchem assays (depositor defined):AID2717, AID2721]; format: functional; settings: Homo sapiens
[21] = molecular target: Nonstructural protein 1 (Influenza A virus, UniProt Q194T2); format: functional, Influenza A virus (A/California/07/2009(H1N1))
[22] = molecular target: T4, High affinity choline transporter 1 (Homo sapiens, UniProt Q9GZV3); experiment: CHT inhibitors, dose response, cell-based, 5-point CRC, membrane potential dye (AID 504840); format: functional
T4 sequence (Q9GZV3 whole entry): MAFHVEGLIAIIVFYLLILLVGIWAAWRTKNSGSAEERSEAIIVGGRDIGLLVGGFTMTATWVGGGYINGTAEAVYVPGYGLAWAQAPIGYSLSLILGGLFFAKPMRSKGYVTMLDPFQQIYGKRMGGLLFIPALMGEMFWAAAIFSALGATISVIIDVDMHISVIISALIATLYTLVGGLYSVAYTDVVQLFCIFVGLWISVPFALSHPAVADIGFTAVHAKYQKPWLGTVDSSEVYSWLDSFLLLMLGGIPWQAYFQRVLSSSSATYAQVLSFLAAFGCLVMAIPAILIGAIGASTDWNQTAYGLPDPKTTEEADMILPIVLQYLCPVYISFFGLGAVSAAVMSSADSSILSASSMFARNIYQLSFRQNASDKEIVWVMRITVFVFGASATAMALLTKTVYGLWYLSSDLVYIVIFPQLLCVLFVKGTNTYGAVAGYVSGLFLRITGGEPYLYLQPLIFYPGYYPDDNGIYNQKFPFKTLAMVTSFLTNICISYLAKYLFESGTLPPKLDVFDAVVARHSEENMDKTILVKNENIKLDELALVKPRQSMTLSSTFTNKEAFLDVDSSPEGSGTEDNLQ

Chain of Glucose-6-phosphate 1-dehydrogenase (P11413 whole entry): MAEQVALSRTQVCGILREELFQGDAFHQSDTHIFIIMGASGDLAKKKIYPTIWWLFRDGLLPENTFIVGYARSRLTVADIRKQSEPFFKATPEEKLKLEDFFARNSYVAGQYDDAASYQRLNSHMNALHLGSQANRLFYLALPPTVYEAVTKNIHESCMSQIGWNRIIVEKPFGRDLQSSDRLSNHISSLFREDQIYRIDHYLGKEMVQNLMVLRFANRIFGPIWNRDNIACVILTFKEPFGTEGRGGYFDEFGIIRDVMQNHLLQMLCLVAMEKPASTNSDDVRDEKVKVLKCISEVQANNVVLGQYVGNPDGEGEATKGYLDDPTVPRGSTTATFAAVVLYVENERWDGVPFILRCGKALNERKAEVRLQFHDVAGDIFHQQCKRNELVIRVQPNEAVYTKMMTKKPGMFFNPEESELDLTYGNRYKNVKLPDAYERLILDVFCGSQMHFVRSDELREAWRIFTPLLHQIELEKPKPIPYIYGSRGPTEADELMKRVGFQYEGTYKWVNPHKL
Chain of Peroxisome proliferator-activated receptor gamma/Nuclear receptor coactivator 1 (P37231 whole entry): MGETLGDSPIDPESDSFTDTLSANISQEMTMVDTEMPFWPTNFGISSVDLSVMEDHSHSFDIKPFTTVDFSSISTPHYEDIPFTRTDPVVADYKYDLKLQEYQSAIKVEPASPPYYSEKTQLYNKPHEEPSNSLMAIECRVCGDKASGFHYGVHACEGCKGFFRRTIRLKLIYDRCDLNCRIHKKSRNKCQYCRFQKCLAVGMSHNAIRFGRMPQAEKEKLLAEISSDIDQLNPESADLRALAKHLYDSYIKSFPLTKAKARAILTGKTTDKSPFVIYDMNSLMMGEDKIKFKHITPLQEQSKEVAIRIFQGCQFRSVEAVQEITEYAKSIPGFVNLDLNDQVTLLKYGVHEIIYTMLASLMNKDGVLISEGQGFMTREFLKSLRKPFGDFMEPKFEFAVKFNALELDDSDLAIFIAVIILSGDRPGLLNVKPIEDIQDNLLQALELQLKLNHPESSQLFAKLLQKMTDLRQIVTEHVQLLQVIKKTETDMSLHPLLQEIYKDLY
Chain of Peroxisome proliferator-activated receptor gamma/Nuclear receptor coactivator 1 (Q15788 whole entry, further chain): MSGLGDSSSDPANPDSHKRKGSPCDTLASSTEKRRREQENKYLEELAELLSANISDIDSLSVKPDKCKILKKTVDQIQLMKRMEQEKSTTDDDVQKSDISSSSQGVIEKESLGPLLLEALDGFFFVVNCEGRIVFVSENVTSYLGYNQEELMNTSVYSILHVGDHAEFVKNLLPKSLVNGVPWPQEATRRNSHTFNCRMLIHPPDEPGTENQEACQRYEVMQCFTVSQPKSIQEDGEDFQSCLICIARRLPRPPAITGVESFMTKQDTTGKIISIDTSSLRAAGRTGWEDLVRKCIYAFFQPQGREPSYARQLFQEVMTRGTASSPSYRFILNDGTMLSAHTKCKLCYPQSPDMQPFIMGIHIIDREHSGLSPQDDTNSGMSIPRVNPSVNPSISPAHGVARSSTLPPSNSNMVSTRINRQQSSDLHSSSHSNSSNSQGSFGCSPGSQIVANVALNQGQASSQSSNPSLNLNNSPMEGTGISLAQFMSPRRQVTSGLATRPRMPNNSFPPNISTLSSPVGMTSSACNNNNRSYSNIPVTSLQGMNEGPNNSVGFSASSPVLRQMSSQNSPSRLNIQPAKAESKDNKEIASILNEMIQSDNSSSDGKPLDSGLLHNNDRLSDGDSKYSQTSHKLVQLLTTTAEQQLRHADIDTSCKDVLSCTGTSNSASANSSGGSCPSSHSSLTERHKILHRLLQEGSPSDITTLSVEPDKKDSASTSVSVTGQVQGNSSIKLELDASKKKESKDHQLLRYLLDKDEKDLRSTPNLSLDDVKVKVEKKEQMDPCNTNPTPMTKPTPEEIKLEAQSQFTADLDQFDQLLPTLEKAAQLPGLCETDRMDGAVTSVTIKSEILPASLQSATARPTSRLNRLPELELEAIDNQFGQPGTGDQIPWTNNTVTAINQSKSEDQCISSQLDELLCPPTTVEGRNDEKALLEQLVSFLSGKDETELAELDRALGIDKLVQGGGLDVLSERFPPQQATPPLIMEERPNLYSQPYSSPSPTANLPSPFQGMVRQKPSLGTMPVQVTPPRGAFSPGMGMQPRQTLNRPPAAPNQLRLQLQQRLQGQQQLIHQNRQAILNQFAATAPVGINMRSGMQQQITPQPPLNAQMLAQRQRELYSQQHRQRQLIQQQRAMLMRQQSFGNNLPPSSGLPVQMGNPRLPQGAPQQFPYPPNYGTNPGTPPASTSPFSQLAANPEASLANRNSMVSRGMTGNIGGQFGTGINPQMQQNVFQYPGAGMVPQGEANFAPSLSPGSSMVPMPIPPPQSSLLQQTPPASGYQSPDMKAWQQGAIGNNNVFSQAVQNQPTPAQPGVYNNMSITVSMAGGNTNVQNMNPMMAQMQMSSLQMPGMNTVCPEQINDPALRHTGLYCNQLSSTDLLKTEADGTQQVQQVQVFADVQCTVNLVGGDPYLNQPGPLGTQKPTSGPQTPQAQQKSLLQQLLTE
Chain of Peroxisome proliferator-activated receptor gamma/Nuclear receptor coactivator 2 (P37231 whole entry): as the sequence (P37231 whole entry) above
Chain of Peroxisome proliferator-activated receptor gamma/Nuclear receptor coactivator 2 (Q15596 whole entry, further chain): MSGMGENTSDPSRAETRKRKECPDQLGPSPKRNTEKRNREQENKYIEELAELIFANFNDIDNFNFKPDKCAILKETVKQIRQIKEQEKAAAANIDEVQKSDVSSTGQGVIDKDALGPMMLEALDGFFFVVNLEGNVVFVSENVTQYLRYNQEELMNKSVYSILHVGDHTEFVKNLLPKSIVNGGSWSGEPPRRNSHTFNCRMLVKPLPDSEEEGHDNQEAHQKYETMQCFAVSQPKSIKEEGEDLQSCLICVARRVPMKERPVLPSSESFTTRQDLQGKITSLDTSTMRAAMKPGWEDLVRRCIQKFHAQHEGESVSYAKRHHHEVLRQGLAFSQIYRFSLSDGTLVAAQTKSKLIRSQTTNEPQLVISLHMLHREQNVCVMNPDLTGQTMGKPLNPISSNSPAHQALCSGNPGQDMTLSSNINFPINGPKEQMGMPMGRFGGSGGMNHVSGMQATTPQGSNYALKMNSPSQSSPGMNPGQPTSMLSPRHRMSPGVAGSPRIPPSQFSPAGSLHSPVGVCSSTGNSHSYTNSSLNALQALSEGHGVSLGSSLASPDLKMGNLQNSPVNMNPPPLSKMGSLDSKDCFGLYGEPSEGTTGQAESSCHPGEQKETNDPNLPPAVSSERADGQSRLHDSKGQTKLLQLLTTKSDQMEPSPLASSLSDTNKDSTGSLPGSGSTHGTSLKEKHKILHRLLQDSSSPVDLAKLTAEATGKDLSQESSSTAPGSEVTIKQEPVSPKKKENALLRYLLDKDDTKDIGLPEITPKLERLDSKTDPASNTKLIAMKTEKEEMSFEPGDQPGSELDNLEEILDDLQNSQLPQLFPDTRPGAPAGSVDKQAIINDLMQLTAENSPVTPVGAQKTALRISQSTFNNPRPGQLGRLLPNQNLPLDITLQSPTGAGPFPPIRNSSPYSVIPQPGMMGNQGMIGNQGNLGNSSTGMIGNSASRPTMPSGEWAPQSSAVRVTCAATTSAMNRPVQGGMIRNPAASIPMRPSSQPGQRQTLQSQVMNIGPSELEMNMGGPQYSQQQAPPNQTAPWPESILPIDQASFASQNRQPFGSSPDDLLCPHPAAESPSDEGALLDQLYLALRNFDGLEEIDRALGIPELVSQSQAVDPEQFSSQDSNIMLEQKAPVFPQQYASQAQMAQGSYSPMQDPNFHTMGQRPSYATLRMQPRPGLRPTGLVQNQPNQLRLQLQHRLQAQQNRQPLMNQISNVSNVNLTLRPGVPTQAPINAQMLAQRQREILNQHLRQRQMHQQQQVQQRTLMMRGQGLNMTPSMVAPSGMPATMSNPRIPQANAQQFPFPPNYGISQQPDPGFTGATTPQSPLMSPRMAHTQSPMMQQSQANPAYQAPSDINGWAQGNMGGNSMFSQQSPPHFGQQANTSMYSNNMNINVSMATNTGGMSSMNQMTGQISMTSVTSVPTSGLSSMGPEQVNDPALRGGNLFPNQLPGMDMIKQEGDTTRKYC
Chain of Nonstructural protein 1 (Q194T2 whole entry): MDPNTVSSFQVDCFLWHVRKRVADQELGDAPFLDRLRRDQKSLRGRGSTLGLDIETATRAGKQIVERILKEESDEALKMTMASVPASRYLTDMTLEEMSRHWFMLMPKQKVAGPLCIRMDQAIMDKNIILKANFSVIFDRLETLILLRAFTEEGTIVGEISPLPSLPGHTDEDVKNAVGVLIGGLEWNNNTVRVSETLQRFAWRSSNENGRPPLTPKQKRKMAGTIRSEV

Clc1cc(Cl)cc(Nc2nc[nH]n2)c1
IC50 [1]: 23.3 µM (active) | CC50 [2]: 22.7 µM (active)

CCn1c(=O)cc(SCC(=O)Nc2cccnc2)c2ccccc21
EC50 [3]: > 79.4 µM (inactive) | EC50 [4]: > 79.4 µM (not active) | EC50 [5]: > 79.4 µM (not active)

CSc1nnc(NC(=O)c2ccc3c(c2)OCO3)s1
IC50 [6]: 22.5 µM (inactive) | AC50 [7]: > 52 µM (inactive) | AC50 [8]: 1.72 µM (active) | AC50 [9]: 1.86 µM (active)

CC(=O)OCCNc1cc(SCc2ccco2)c2nonc2c1[N+](=O)[O-]
EC50 [10]: 23.7 µM (active) | EC50 [11]: 17.6 µM (active) | CC50 [12]: 30.1 µM (active) | IC50 [13]: 5.86 µM (active) | AC50 [14]: 8.4 µM (active) | EC50 [15]: 2.73 µM (active)

CN(C)CCCNc1ccc(-c2cc(Nc3cccc(Cl)c3)ncn2)cn1
EC50 [16]: 14.1 µM (active) | EC50 [17]: > 150 µM (not active) | EC50 [18]: > 75 µM (not active) | EC50 [19]: 22.6 µM (active) | AC50 [20]: 4.54 µM (active)

Cc1ccc(S(=O)(=O)Nc2nncs2)cc1
IC50 [1]: 23.2 µM (active)

CNS(=O)(=O)c1ccc(-c2ccc(C=C3C(=O)NC(=O)NC3=O)o2)cc1
IC50 [6]: 51.2 µM (inactive)

C=CCN1C=C/C(=C\C=C(C#N)C#N)c2ccccc21
IC50 [21]: 14.2 µM (active)

CCOC(=O)C1CSC(CC(=O)Nc2ccc(OCC)cc2)C(=O)N1 (centres undefined)
IC50 [1]: 11.4 µM (active)

O=C(O)CSc1nnc(CNc2cccc(C(F)(F)F)c2)n1Cc1ccco1
IC50 [1]: 48.8 µM (active)

Cc1ccc(NC(S)=Nc2ccc3nc(-c4ccccn4)c(-c4ccccn4)nc3c2)cc1C
IC50 [22]: 13.2 µM (active)

CCCCNC(=O)CSc1cc(=O)n(C)c2ccccc12
EC50 [3]: > 79.4 µM (inactive) | EC50 [4]: > 79.4 µM (not active) | EC50 [5]: > 79.4 µM (not active)
